Results reported in PubChem BioAssay (NCI).
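Growth conditions: 96-well plates. Treatment: test compound, 48 hours, 5 concentrations. Analysis: linear interpolation between bracketing concentrations; unreached endpoints set to highest concentration. At the GI50, growth is halved. The concentration for full growth arrest is given as TGI.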

Experiments:
Experiment in all cases: inhibition of tumour cell growth, NCI panel, 48 h
SNB-19 CNS = system: SNB-19 CNS
786-0 renal = system: 786-0 renal
SF-539 CNS = system: SF-539 CNS
TK-10 renal = system: TK-10 renal
UACC-62 melanoma = system: UACC-62 melanoma
SK-MEL-2 melanoma = system: SK-MEL-2 melanoma
UACC-257 melanoma = system: UACC-257 melanoma
SN12C renal = system: SN12C renal
NCI-H522 lung = system: NCI-H522 lung
M14 melanoma = system: M14 melanoma
MOLT-4 leukemia = system: MOLT-4 leukemia
SK-MEL-28 melanoma = system: SK-MEL-28 melanoma
T-47D breast = system: T-47D breast
SF-295 CNS = system: SF-295 CNS
OVCAR-5 ovarian = system: OVCAR-5 ovarian
MCF7 breast = system: MCF7 breast
PC-3 prostate = system: PC-3 prostate
MDA-MB-435 = system: MDA-MB-435
HCT-116 colon = system: HCT-116 colon
NCI/ADR-RES ovarian = system: NCI/ADR-RES ovarian
NCI-H226 lung = system: NCI-H226 lung
SF-268 CNS = system: SF-268 CNS
ACHN renal = system: ACHN renal
SNB-75 CNS = system: SNB-75 CNS
OVCAR-4 ovarian = system: OVCAR-4 ovarian
OVCAR-8 ovarian = system: OVCAR-8 ovarian
K-562 leukemia = system: K-562 leukemia
HOP-62 NSCLC = system: HOP-62 NSCLC
SR leukemia = system: SR leukemia
HT29 colon = system: HT29 colon
DU-145 prostate = system: DU-145 prostate
HCT-15 colon = system: HCT-15 colon
CCRF-CEM leukemia = system: CCRF-CEM leukemia
NCI-H460 lung = system: NCI-H460 lung
RPMI-8226 leukemia = system: RPMI-8226 leukemia
U251 CNS = system: U251 CNS
A498 renal = system: A498 renal
OVCAR-3 ovarian = system: OVCAR-3 ovarian
HL-60(TB) leukemia = system: HL-60(TB) leukemia
RXF 393 renal = system: RXF 393 renal
UO-31 renal = system: UO-31 renal
BT-549 breast = system: BT-549 breast
MDA-MB-231 breast = system: MDA-MB-231 breast
SW-620 colon = system: SW-620 colon
KM12 colon = system: KM12 colon
EKVX NSCLC = system: EKVX NSCLC
SK-OV-3 ovarian = system: SK-OV-3 ovarian
HS 578T breast = system: HS 578T breast
MALME-3M melanoma = system: MALME-3M melanoma
CAKI-1 renal = system: CAKI-1 renal
IGROV1 ovarian = system: IGROV1 ovarian
A549 NSCLC = system: A549 NSCLC
NCI-H23 lung = system: NCI-H23 lung
LOX IMVI melanoma = system: LOX IMVI melanoma
COLO 205 colon = system: COLO 205 colon
SK-MEL-5 melanoma = system: SK-MEL-5 melanoma
HOP-92 NSCLC = system: HOP-92 NSCLC
HCC-2998 colon = system: HCC-2998 colon

## O=C1c2ccccc2-c2c1c1ccccc1c(=O)n2CCCN1CCN(CCCn2c3c(c4ccccc4c2=O)C(=O)c2ccccc2-3)CC1
SNB-19 CNS
  GI50: 99.4 µM
  TGI: > 100 µM
786-0 renal
  GI50: 2.22 µM
  TGI: > 32 µM
SF-539 CNS
  GI50: > 70.6 µM
  TGI: > 100 µM
TK-10 renal
  GI50: 22.7 µM
  TGI: > 70.8 µM
UACC-62 melanoma
  GI50: > 100 µM
  TGI: > 100 µM
SK-MEL-2 melanoma
  GI50: > 100 µM
  TGI: > 100 µM
UACC-257 melanoma
  GI50: > 100 µM
  TGI: > 100 µM
SN12C renal
  GI50: > 39.2 µM
  TGI: > 92 µM
NCI-H522 lung
  GI50: > 100 µM
  TGI: > 100 µM
M14 melanoma
  GI50: > 100 µM
  TGI: > 100 µM
MOLT-4 leukemia
  GI50: 0.325 µM
  TGI: 21.9 µM
SK-MEL-28 melanoma
  GI50: > 100 µM
  TGI: > 100 µM
T-47D breast
  GI50: > 100 µM
  TGI: > 100 µM
SF-295 CNS
  GI50: 12.6 µM
  TGI: > 86.1 µM
OVCAR-5 ovarian
  GI50: > 100 µM
  TGI: > 100 µM
MCF7 breast
  GI50: > 100 µM
  TGI: > 100 µM
PC-3 prostate
  GI50: > 100 µM
  TGI: > 100 µM
MDA-MB-435
  GI50: > 100 µM
  TGI: > 100 µM
HCT-116 colon
  GI50: 35.3 µM
  TGI: > 100 µM
NCI/ADR-RES ovarian
  GI50: > 100 µM
  TGI: > 100 µM
NCI-H226 lung
  GI50: > 76.5 µM
  TGI: > 100 µM
SF-268 CNS
  GI50: 25 µM
  TGI: > 100 µM
ACHN renal
  GI50: 22.4 µM
  TGI: > 100 µM
SNB-75 CNS
  GI50: > 47.7 µM
  TGI: > 84 µM
OVCAR-4 ovarian
  GI50: > 100 µM
  TGI: > 100 µM
OVCAR-8 ovarian
  GI50: 15.6 µM
  TGI: > 100 µM
K-562 leukemia
  GI50: 42.7 µM
  TGI: > 100 µM
HOP-62 NSCLC
  GI50: 6.41 µM
  TGI: 53.4 µM
SR leukemia
  GI50: 0.0809 µM
  TGI: 17.9 µM
HT29 colon
  GI50: > 100 µM
  TGI: > 100 µM
DU-145 prostate
  GI50: 23.7 µM
  TGI: > 86.4 µM
HCT-15 colon
  GI50: > 79.7 µM
  TGI: > 100 µM
CCRF-CEM leukemia
  GI50: 13.8 µM
  TGI: > 100 µM
NCI-H460 lung
  GI50: > 68 µM
  TGI: > 100 µM
RPMI-8226 leukemia
  GI50: > 52.2 µM
  TGI: > 100 µM
U251 CNS
  GI50: 5.44 µM
  TGI: 18.7 µM
A498 renal
  GI50: > 55.3 µM
  TGI: > 100 µM
OVCAR-3 ovarian
  GI50: > 100 µM
  TGI: > 100 µM
HL-60(TB) leukemia
  GI50: 79.7 µM
  TGI: > 100 µM
RXF 393 renal
  GI50: 46.2 µM
  TGI: > 100 µM
UO-31 renal
  GI50: > 45.7 µM
  TGI: > 100 µM
BT-549 breast
  GI50: > 75.2 µM
  TGI: > 100 µM
MDA-MB-231 breast
  GI50: 2.41 µM
  TGI: 27.4 µM
SW-620 colon
  GI50: > 100 µM
  TGI: > 100 µM
KM12 colon
  GI50: > 100 µM
  TGI: > 100 µM
EKVX NSCLC
  GI50: > 100 µM
  TGI: > 100 µM
SK-OV-3 ovarian
  GI50: > 100 µM
  TGI: > 100 µM
HS 578T breast
  GI50: > 100 µM
  TGI: > 100 µM
MALME-3M melanoma
  GI50: > 57.6 µM
  TGI: > 100 µM
CAKI-1 renal
  GI50: > 100 µM
  TGI: > 100 µM
IGROV1 ovarian
  GI50: > 35 µM
  TGI: > 100 µM
A549 NSCLC
  GI50: > 100 µM
  TGI: > 100 µM
NCI-H23 lung
  GI50: 34.5 µM
  TGI: > 83.8 µM
LOX IMVI melanoma
  GI50: > 88.3 µM
  TGI: > 100 µM
COLO 205 colon
  GI50: > 100 µM
  TGI: > 100 µM
SK-MEL-5 melanoma
  GI50: > 100 µM
  TGI: > 100 µM
HOP-92 NSCLC
  GI50: 19.9 µM
  TGI: 74.1 µM
HCC-2998 colon
  GI50: > 100 µM
  TGI: > 100 µM

## Clc1ccc(-c2nn3ncccc3c2-c2ccnc(Nc3ccccc3)n2)cc1
SNB-19 CNS
  GI50: > 14.4 µM
  TGI: > 25 µM
786-0 renal
  GI50: 8.2 µM
  TGI: > 25 µM
SF-539 CNS
  GI50: > 14.2 µM
  TGI: > 25 µM
TK-10 renal
  GI50: 7.43 µM
  TGI: > 20.4 µM
UACC-62 melanoma
  GI50: > 13 µM
  TGI: > 25 µM
SK-MEL-2 melanoma
  GI50: 24.4 µM
  TGI: > 25 µM
UACC-257 melanoma
  GI50: > 15.1 µM
  TGI: > 25 µM
SN12C renal
  GI50: 8.29 µM
  TGI: > 25 µM
NCI-H522 lung
  GI50: 5.99 µM
  TGI: > 25 µM
M14 melanoma
  GI50: > 14.8 µM
  TGI: > 25 µM
MOLT-4 leukemia
  GI50: 5.77 µM
  TGI: > 25 µM
SK-MEL-28 melanoma
  GI50: > 22.2 µM
  TGI: > 25 µM
T-47D breast
  GI50: 10.2 µM
  TGI: > 25 µM
SF-295 CNS
  GI50: 9.67 µM
  TGI: > 25 µM
OVCAR-5 ovarian
  GI50: 11.9 µM
  TGI: > 25 µM
MCF7 breast
  GI50: 7.17 µM
  TGI: > 25 µM
PC-3 prostate
  GI50: 7.3 µM
  TGI: > 25 µM
MDA-MB-435
  GI50: 10.1 µM
  TGI: > 25 µM
HCT-116 colon
  GI50: 7.02 µM
  TGI: > 25 µM
NCI/ADR-RES ovarian
  GI50: 8.01 µM
  TGI: > 25 µM
NCI-H226 lung
  GI50: > 13.1 µM
  TGI: > 25 µM
SF-268 CNS
  GI50: 11.5 µM
  TGI: > 25 µM
ACHN renal
  GI50: 3.69 µM
  TGI: > 25 µM
SNB-75 CNS
  GI50: 6.31 µM
  TGI: > 25 µM
OVCAR-4 ovarian
  GI50: 9.6 µM
  TGI: > 25 µM
OVCAR-8 ovarian
  GI50: 11.8 µM
  TGI: > 25 µM
K-562 leukemia
  GI50: 2.89 µM
  TGI: > 25 µM
HOP-62 NSCLC
  GI50: > 21.4 µM
  TGI: > 25 µM
SR leukemia
  GI50: 7.66 µM
  TGI: > 25 µM
HT29 colon
  GI50: 6.51 µM
  TGI: > 25 µM
DU-145 prostate
  GI50: 11 µM
  TGI: > 25 µM
HCT-15 colon
  GI50: 7.94 µM
  TGI: > 25 µM
CCRF-CEM leukemia
  GI50: 10.6 µM
  TGI: > 25 µM
NCI-H460 lung
  GI50: 6.34 µM
  TGI: > 25 µM
RPMI-8226 leukemia
  GI50: 11.7 µM
  TGI: > 25 µM
U251 CNS
  GI50: 14.9 µM
  TGI: > 25 µM
A498 renal
  GI50: 4.42 µM
  TGI: > 23.3 µM
OVCAR-3 ovarian
  GI50: 5.92 µM
  TGI: > 25 µM
HL-60(TB) leukemia
  GI50: 11.3 µM
  TGI: > 25 µM
RXF 393 renal
  GI50: 6.56 µM
  TGI: > 25 µM
UO-31 renal
  GI50: 1.35 µM
  TGI: > 16.1 µM
BT-549 breast
  GI50: 10.7 µM
  TGI: > 25 µM
MDA-MB-231 breast
  GI50: 13.4 µM
  TGI: > 25 µM
SW-620 colon
  GI50: 12 µM
  TGI: > 25 µM
KM12 colon
  GI50: 9.03 µM
  TGI: > 25 µM
EKVX NSCLC
  GI50: 2.94 µM
  TGI: > 25 µM
SK-OV-3 ovarian
  GI50: 6.55 µM
  TGI: > 25 µM
HS 578T breast
  GI50: 6.4 µM
  TGI: > 22 µM
MALME-3M melanoma
  GI50: > 20.6 µM
  TGI: > 25 µM
CAKI-1 renal
  GI50: 2.5 µM
  TGI: > 22.2 µM
IGROV1 ovarian
  GI50: 2.29 µM
  TGI: > 22 µM
A549 NSCLC
  GI50: 11.3 µM
  TGI: > 25 µM
NCI-H23 lung
  GI50: 10.5 µM
  TGI: > 25 µM
LOX IMVI melanoma
  GI50: 9.23 µM
  TGI: > 25 µM
COLO 205 colon
  GI50: > 18.7 µM
  TGI: > 25 µM
SK-MEL-5 melanoma
  GI50: > 12.4 µM
  TGI: > 25 µM
HOP-92 NSCLC
  GI50: 2.89 µM
  TGI: > 21.6 µM
HCC-2998 colon
  GI50: 10.9 µM
  TGI: > 25 µM
